Data: ChEMBL document CHEMBL5370601, “Synthesis and Binding Mode Predictions of Novel Siglec-7 Ligands” (J Med Chem, 2023)

Legend:
[1] = target: Sialic acid-binding Ig-like lectin 7 (Homo sapiens) (UniProt Q9Y286); assay: Potency index, ratio of test compound IC50 to (2R,4S,5R,6R)-2-(3-(4-([1,1'-biphenyl]-4-yl)-1H-1,2,3-triazol-1-yl)propoxy)-5-acetamido-4-hydroxy-6-((1R,2R)-1,2,3-trihydroxypropyl)tetrahydro-2H-pyran-2-carboxylate Sodium IC50 for competitive inhibition of IgG1-fused human Siglec-7 Fc domain preincubated for 10 mins followed by addition of red blood cells incubated for 20 mins on ice by sandwich FACS analysis; conditions: time 30.0 min
[2] = target: Sialic acid-binding Ig-like lectin 7 (Homo sapiens) (UniProt Q9Y286); assay: Potency index, ratio of test compound IC50 to (2R,4S,5R,6R)-2-(3-(4-([1,1'-biphenyl]-4-yl)-1H-1,2,3-triazol-1-yl)propoxy)-5-acetamido-6-((1R,2R)-1,2-dihydroxy-3-(methylsulfonamido)propyl)-4-hydroxytetrahydro-2H-pyran-2-carboxylate Sodium IC50 for competitive inhibition of IgG1-fused human Siglec-7 Fc domain preincubated for 10 mins followed by addition of red blood cells incubated for 20 mins on ice by sandwich FACS analysis; conditions: time 30.0 min
[3] = Solubility in water; assay type: physicochemical; conditions: buffer
[4] = Solubility in methanol; assay type: physicochemical
[5] = Solubility in PBS; assay type: physicochemical; conditions: buffer

Sialic acid-binding Ig-like lectin 7 (Homo sapiens), sequence (Q9Y286 whole entry, the tested form may be a part): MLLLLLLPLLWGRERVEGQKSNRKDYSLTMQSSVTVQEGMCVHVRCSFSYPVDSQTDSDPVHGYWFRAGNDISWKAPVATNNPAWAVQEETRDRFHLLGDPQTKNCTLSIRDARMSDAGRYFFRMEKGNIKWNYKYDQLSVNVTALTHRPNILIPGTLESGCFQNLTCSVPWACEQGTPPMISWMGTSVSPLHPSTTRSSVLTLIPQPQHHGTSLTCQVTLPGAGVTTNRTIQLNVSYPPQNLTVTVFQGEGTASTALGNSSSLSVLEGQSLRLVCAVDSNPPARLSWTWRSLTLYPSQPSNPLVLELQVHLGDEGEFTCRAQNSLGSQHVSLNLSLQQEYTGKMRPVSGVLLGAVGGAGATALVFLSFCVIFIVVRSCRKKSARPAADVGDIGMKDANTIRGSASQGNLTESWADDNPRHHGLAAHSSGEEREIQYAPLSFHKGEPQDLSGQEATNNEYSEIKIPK

SMILES	Ratio IC50 [1]	Ratio IC50 [2]	other results
CC(=O)N[C@H]1[C@H]([C@H](O)[C@H](O)CC(=O)O)O[C@@](OCCCn2cc(-c3ccc(-c4ccccc4)cc3)nn2)(C(=O)O)C[C@@H]1O	0.75		
CS(=O)(=O)NC[C@@H](O)[C@@H](O)[C@@H]1O[C@@](OCCCn2cc(-c3ccc(-c4ccccc4)cc3)nn2)(C(=O)O)C[C@H](O)[C@H]1NC(=O)COCc1ccccc1		0.3	
O=C(CF)N[C@H]1[C@H]([C@H](O)[C@H](O)CO)O[C@@](OCCCn2cc(-c3ccc(-c4ccccc4)cc3)nn2)(C(=O)O)C[C@@H]1O	1.6		
N[C@H]1[C@H]([C@H](O)[C@H](O)CO)O[C@@](OCCCn2cc(-c3ccc(-c4ccccc4)cc3)nn2)(C(=O)O)C[C@@H]1O			solubility [3]: Insoluble; solubility [4]: Insoluble
CC(=O)N[C@H]1[C@H]([C@H](O)[C@H](O)CCNC(=O)Cc2ccccc2)O[C@@](OCCCn2cc(-c3ccc(-c4ccccc4)cc3)nn2)(C(=O)O)C[C@@H]1O	< 0.5		
O=C(COCc1ccccc1)N[C@H]1[C@H]([C@H](O)[C@H](O)CO)O[C@@](OCCCn2cc(-c3ccc(-c4ccccc4)cc3)nn2)(C(=O)[O-])C[C@@H]1O.[Na+]			solubility [5]: Insoluble; solubility [3]: Insoluble
CS(=O)(=O)NC[C@@H](O)[C@@H](O)[C@@H]1O[C@@](OCCCn2cc(-c3ccc(-c4ccccc4)cc3)nn2)(C(=O)O)C[C@H](O)[C@H]1NC(=O)CF		1.5	
O=C(CO)N[C@H]1[C@H]([C@H](O)[C@H](O)CO)O[C@@](OCCCn2cc(-c3ccc(-c4ccccc4)cc3)nn2)(C(=O)O)C[C@@H]1O	1.5		
CCC(=O)NCC[C@@H](O)[C@@H](O)[C@@H]1O[C@@](OCCCn2cc(-c3ccc(-c4ccccc4)cc3)nn2)(C(=O)O)C[C@H](O)[C@H]1NC(C)=O	< 0.5		
CS(=O)(=O)NC[C@@H](O)[C@@H](O)[C@@H]1O[C@@](OCCCn2cc(-c3ccc(-c4ccccc4)cc3)nn2)(C(=O)O)C[C@H](O)[C@H]1NC(=O)CO		1.2	
